Results as given in patent US7439350B2, “Nucleotide analogs” (Gilead Sciences, Inc., priority 1993, dated 2008).
“Also recorded” adds a separate entry of the source. Like-named read-outs stand apart in the source and are kept apart here.

Experiments:
[1] = system: herpes simplex virus, type-1 and 2 (HSV-1 and -2); details: cited from earlier work
[2] = system: human immunodeficiency virus (HIV); details: cited from earlier work
HSV-2 (strain 414-92) = test: Antiviral activity against HSV-2 (strain 414-92) in MA 104 cells, crystal violet readout; type: cell-based; details: HSV-2 strain 414-92, MA 104 cells, three days; concentration that inhibits virus-mediated cell killing by 50%
Protocol: Compounds were individually tested for activity against HSV-1 and/or HSV-2. HSV-2 (strain 414-92) was tested using MA 104 cells in the following assay protocol. 96-Well plates were seeded with 1×10^4 MA 104 cells per well using 200 μL minimal essential medium (MEM) containing 10% calf serum per well, and incubated overnight at 37° C. The compounds were dissolved in MEM Earle's Salts without serum. The medium was removed by-aspiration and 100 μL MEM Earle's Salts without serum was added to the wells. Serial 3-fold dilutions of the compounds were prepared by serial transfer of 50 μL of medium from wells containing compound to wells lacking compound. The plates were incubated 15 minutes at 37° C. followed by addition of 100 PFU/well of virus in MEM Earle's Salts with 2% fetal bovine serum. The plates were then incubated at 37° C. for three days until approximately 90% of the cells in virus infected control wells containing no compound were killed. Following incubation, medium was aspirated and the wells were washed with sterile PBS. 100 μL 0.5% crystal violet in 20% methanol was then added to the wells for 5 minutes, aspirated and the wells were washed two or three times with distilled water. 200 μL of 0.01 N HCl was added to the wells and the absorbance of each well at 595 nm was determined. The results, shown in Table 6, were expressed as the IC50, the concentration (μM) that inhibits cell killing mediated by HSV-2 by 50%. […] The toxicity of the compounds were expressed as the CC50, the concentration that kills 50% of uninfected cells.

[3] = system: uninfected cells (MA 104 cells); test: Toxicity of the compounds to uninfected cells (CC50); type: cell-based; details: concentration that kills 50% of uninfected cells
Protocol: Compounds were individually tested for activity against HSV-1 and/or HSV-2. HSV-2 (strain 414-92) was tested using MA 104 cells in the following assay protocol. 96-Well plates were seeded with 1×10^4 MA 104 cells per well using 200 μL minimal essential medium (MEM) containing 10% calf serum per well, and incubated overnight at 37° C. The compounds were dissolved in MEM Earle's Salts without serum. The medium was removed by-aspiration and 100 μL MEM Earle's Salts without serum was added to the wells. Serial 3-fold dilutions of the compounds were prepared by serial transfer of 50 μL of medium from wells containing compound to wells lacking compound. The plates were incubated 15 minutes at 37° C. followed by addition of 100 PFU/well of virus in MEM Earle's Salts with 2% fetal bovine serum. The plates were then incubated at 37° C. for three days until approximately 90% of the cells in virus infected control wells containing no compound were killed. Following incubation, medium was aspirated and the wells were washed with sterile PBS. 100 μL 0.5% crystal violet in 20% methanol was then added to the wells for 5 minutes, aspirated and the wells were washed two or three times with distilled water. 200 μL of 0.01 N HCl was added to the wells and the absorbance of each well at 595 nm was determined. […]

[4] = system: herpes simplex virus type 1; details: mice and rabbits in vivo, including herpetic keratitis caused by a TK- mutant; cited from earlier work
adenovirus = details: cited from earlier work
[5] = system: varicella zoster virus (VZV); details: cited from earlier work
[6] = system: broad-spectrum of DNA viruses; details: HSV-1 and 2, VZV, TK- HSV, HCMV, SeHV, SHV-1, BHV-1, EHV-1, ASF virus, vaccinia virus, adenoviruses, MSV; cited from earlier work
vaccinia virus = details: cited from earlier work
[7] = system: intraperitoneal P388 leukemia; details: murine tumor model; cited from earlier work
[8] = system: human cytomegalovirus (HCMV); details: cited from earlier work
R-MuLV = details: treatment of R-MuLV in mice; cited from earlier work
MA 104 cells = test: CC50 in the HSV II / MA 104 XTT assay; type: cell-based
KOS strain of HSV-1 = test: Antiviral activity against KOS strain of HSV-1 in VERO cells; type: cell-based; details: KOS strain of HSV-1, VERO cells; concentration that inhibits virus-mediated cell killing by 50%
HSV II = test: Inhibition of cytopathic effects by HSV II in MA 104 cells, XTT readout; type: cell-based; details: CPE determined with XTT
[9] = system: Rauscher murine leukemia virus (R-MuLV); details: in vitro; cited from earlier work
[10] = system: murine cytomegalovirus (MCMV); details: cited from earlier work
[11] = Incubation in rat intestinal wash; type: in vitro ADME; details: both phosphorus isomers
Source text: (§1) The cHFMPC pivaloyloxymethyl ester synthesis yields a scalemic mixture at the phosphorus atom. The mixture was separated by HIPLC into the two isomers which were then exposed to an rat intestinal homogenate or to a rat intestinal wash.

[12] = Incubation in rat intestinal homogenate; type: in vitro ADME; details: two phosphorus isomers separated by HPLC (one isomer / the other isomer)
Source text: as §1

HCMV = test: Activity against HCMV in tissue culture (NHDF cell line); type: cell-based
Source text: The title compound was synthesized using N^4-benzoyl HPMPC diethyl ester tritylated at the hydroxyl group as a starting material. The starting material was detritylated using acetic acid and then converted to N^4-benzoyl HPMPC using TMSBr. The resulting compound was converted to N^4-benzoyl cHPMPC using DCC and morpholine in pyridine.

herpes viruses = details: in vitro; cited from earlier work
HSV 1 = details: in vivo, HSV 1 infection in mice; cited from earlier work
B16 melanoma = details: murine tumor model; cited from earlier work
[13] = Oral bioavailability in monkeys

Which “activity against HSV-1 and -2” value [1] does the source give for `Nc1nc(N)c2ncn(CCOCP(=O)(O)O)c2n1` [PMEDAP] here?
The value was “active”.

What about the “activity against HIV” value [2] of the same molecule?
Its value is “active”.

Which IC50 (HSV-2 (strain 414-92)) does the source give for `Nc1ncnc2c1ncn2CCOCP(=O)(NCC(=O)OCc1ccccc1)NCC(=O)OCc1ccccc1` [Ex 4, bis(glycyl benzyl ester)PMEA] here?
Its IC50 is 60 µM.

What about the CC50 [3] of the same molecule?
The CC50 was greater than 100 µM.

For `Nc1ncc2ncn(CCOCP(=O)(O)O)c2n1` [PMEMAP], which “activity against HIV” value [2] is on record?
Its value is “active”.

Which results are given for `Nc1ncnc2c1ncn2C[C@@H](CO)OCP(=O)(O)O` [(S)-HPMPA]?
efficacy against local and systemic HSV-1 infections [4]: effective; activity against adenovirus (adenovirus): active; activity against VZV [5]: active; activity against a broad-spectrum of DNA viruses [6]: potent and selective activity; activity against vaccinia virus (vaccinia virus): active; activity against HSV-1 and -2 [1]: active; antitumor activity against P388 leukemia [7]: active

What does the source list for `Nc1ncnc2c1ncn2CCOCP(=O)(O)O` [PMEA, 9-(2-phosphonylmethoxyethyl)adenine]?
activity against HCMV [8]: activity; potency in vivo compared with AZT (R-MuLV): more potent; CC50 (MA 104 cells; MA 104 cells, XTT assay of Example 4, read-out: CC50): 2 mM; EC50 (KOS strain of HSV-1): 138 µM; IC50 (HSV II): 19.3 µM; activity against R-MuLV [9]: active; antiviral effect in vivo against MCMV [10]: significant antiviral effect; IC50 (HSV-2 (strain 414-92)): 21 µM; activity against HSV-1 and -2 [1]: active; antitumor activity against P388 leukemia [7]: active; activity against HIV [2]: active

For `CC(C)(C)C(=O)OCOP1(=O)CO[C@@H](Cn2ccc(N)nc2=O)CO1` (stereo partly drawn) [cHFMPC pivaloyloxymethyl ester], which “metabolic fate after incubation in intestinal wash” value [11] is on record?
Its value is “converted to HPMPC pivaloyloxymethyl monoester”.

And the “metabolic fate after incubation in intestinal homogenate” value [12]?
Its value is “converted to cHPMPC; also recorded: converted to HPMPC pivaloyloxymethyl monoester”.

Which activity against adenovirus (adenovirus) does the source give for `Nc1ncnc2c1ncn2C[C@H]1COP(=O)(O)CO1` [(S)-cyclic HPMPA] here?
The activity against adenovirus was “active”.

What about the “activity against VZV” value [5] of the same molecule?
The value was “active”.

What about the “activity against vaccinia virus” value (vaccinia virus) of the same molecule?
The value was “active”.

And the “activity against HSV-1 and -2” value [1]?
The value was “active”.

Which “activity against HCMV” value [8] does the source give for `Nc1ccn(CC(CO)OCP(=O)(O)O)c(=O)n1` (stereo not drawn) [HPMPC, 1-(2-phosphonomethoxy-3-hydroxypropyl)-cytosine] here?
The value was “active”.

What about the IC50 (HCMV; Human betaherpesvirus 5) of the same molecule?
The IC50 was 0.4 µM.

And the “activity against HSV-1 and -2” value [1]?
Its value is “active”.

Which IC50 (HSV-2 (strain 414-92)) does the source give for `CC(NP(=O)(COCCn1cnc2c(N)ncnc21)NC(C)C(=O)OCc1ccccc1)C(=O)OCc1ccccc1` (stereo not drawn) [Ex 1, bis(alanyl benzyl ester)PMEA] here?
The IC50 was 20 µM.

What about the CC50 [3] of the same molecule?
Its CC50 is greater than 100 µM.

For `O=C(Nc1ccn(C[C@H]2COP(=O)(O)CO2)c(=O)n1)c1ccccc1` [N^4-benzoyl cHPMPC], which IC50 (HCMV) is on record?
Its IC50 is 22 µM.

For `Nc1nc2c(ncn2C[C@@H](CO)OCP(=O)(O)O)c(=O)[nH]1` [(S)-HFMPG], which “activity against HSV-1 and -2” value [1] is on record?
The value was “active”.

Which “activity against HSV-1 and -2” value [1] does the source give for `Nc1nc(N)c2ncn(C[C@@H](CO)OCP(=O)(O)O)c2n1` [(S)-HPMPDAP] here?
Its value is “active”.

Which results are given for `Nc1nc2c(ncn2CCOCP(=O)(O)O)c(=O)[nH]1` [PMEG]?
activity against herpes viruses (herpes viruses): active; activity against HSV-1 and -2 [1]: active; antitumor activity against P388 leukemia [7]: active; potency relative to acyclovir (HSV 1): > 50 fold; antitumor activity against B16 melanoma (B16 melanoma): active

With `CC(C)(C)C(=O)OCOP(=O)(COCCn1cnc2c(N)ncnc21)OCOC(=O)C(C)(C)C` [bis(POM)PMEA, bis(pivaloyloxymethyl)-9-(2-phosphonylmethoxyethyl)adenine] as the molecule, how does the CC50 (MA 104 cells) read?
Its CC50 is greater than 0.01 mM.

And the IC50 (HSV II)?
Its IC50 is 0.5 µM.

What about the oral bioavailability [13] of the same molecule?
The oral bioavailability was “about 25%”.
